# Results reported in ChEMBL document CHEMBL5325401, “Computer-aided identification, synthesis, and biological evaluation of DNA polymerase η inhibitors for the treatment of cancer” (Eur J Med Chem, 2023).
# pIC50: −log10 of the molar value. Active and inactive are the calls of the source. No cut-off for these calls is given here.
# Key:
# DNA polymerase eta = target: T1, DNA polymerase eta (Homo sapiens, UniProt Q9Y253); experiment: Inhibition of C-terminal 6xHis-tagged human DNA polymerase eta (1 to 511 residues) expressed in Escherichia coli BL21 DE3 using 5'-IRD700-GCAGGTCGACTCCAAAG-3' primer/ 5'-TCGGTACCGGGTTAGCCTTTGGAGTCGACCTGC-3' template as DNA substrate incubated for 60 mins in presence of Mg2+ by bromophenol blue staining based assay
# T1 sequence (Q9Y253 whole entry): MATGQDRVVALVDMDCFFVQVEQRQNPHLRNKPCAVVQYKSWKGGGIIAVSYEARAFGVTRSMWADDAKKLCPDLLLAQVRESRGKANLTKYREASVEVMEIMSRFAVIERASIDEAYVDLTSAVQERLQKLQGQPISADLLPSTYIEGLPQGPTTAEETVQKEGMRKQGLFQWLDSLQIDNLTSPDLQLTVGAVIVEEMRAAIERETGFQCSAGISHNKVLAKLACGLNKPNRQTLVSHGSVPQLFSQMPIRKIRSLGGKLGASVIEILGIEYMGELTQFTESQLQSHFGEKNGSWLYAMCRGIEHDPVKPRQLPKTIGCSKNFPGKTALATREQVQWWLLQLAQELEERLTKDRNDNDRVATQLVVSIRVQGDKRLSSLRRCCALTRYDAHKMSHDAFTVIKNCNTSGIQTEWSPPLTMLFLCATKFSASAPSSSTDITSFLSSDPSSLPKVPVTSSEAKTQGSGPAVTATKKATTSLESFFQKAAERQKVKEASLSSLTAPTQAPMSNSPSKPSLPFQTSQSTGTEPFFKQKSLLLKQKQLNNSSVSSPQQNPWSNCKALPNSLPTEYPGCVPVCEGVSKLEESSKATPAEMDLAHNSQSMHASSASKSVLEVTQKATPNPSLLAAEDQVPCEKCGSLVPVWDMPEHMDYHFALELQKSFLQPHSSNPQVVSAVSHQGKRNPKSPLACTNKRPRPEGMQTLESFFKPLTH
# A-375 [1] = experiment: Antiproliferative activity against human A-375 cells incubated for 48 hrs by MTT assay; format: functional; conditions: read-out: LD50 (the source's name)
# A549 [2] = experiment: Additive antiproliferative activity against human A549 cells assessed as combination index at 20 uM incubated for 48 hrs in presence of 6 uM cisplatin by MTT assay; format: functional
# [3] = Metabolic stability in mouse plasma assessed as half life at 2 uM incubated upto 120 mins by UPLC/MS analysis; format: ADME, cell-free
# A-375 [4] = experiment: Antiproliferative activity against human A-375 cells assessed as cisplatin LD50 at 10 uM incubated for 48 hrs in presence of cisplatin by MTT assay; format: functional; conditions: read-out: LD50 (the source's name)
# [5] = Kinetic solubility of compound in neutral buffer at pH 7.4 at 250 uM measured after 24 hrs by UPLC/MS analysis; format: physicochemical; conditions: read-out: Kinetic_solubility
# HEK293 = experiment: (§1) Antiproliferative activity against HEK293 cells incubated for 48 hrs by MTT assay; format: toxicity, cell-based; conditions: human, hek293, 48 h
# OVCAR-3 [6] = experiment: Antiproliferative activity against human OVCAR-3 cells assessed as cisplatin LD50 at 10 uM incubated for 48 hrs in presence of cisplatin by MTT assay; format: functional; conditions: read-out: LD50 (the source's name)
# [7] = Upregulation of phosphorylated gamma-H2AX level in human A375 cells assessed as fold increase in activity at 20 uM incubated for 24 hrs by in presence of cisplatin by immunofluorescence based microscopy relative to cisplatin; format: functional, A-375
# A549 [8] = experiment: Antiproliferative activity against human A549 cells assessed as cisplatin LD50 at 20 uM incubated for 48 hrs in presence of cisplatin by MTT assay; format: functional; conditions: read-out: LD50 (the source's name)
# A-375 [9] = experiment: Antiproliferative activity against human A-375 cells assessed as cisplatin LD50 at 20 uM incubated for 48 hrs in presence of cisplatin by MTT assay; format: functional; conditions: read-out: LD50 (the source's name)
# A-375 [10] = experiment: Additive antiproliferative activity against human A-375 cells assessed as combination index at 10 uM incubated for 48 hrs in presence of 6 uM cisplatin by MTT assay; format: functional
# OVCAR-3 [11] = experiment: Antiproliferative activity against human OVCAR-3 cells incubated for 48 hrs by MTT assay; format: functional; conditions: read-out: LD50 (the source's name)
# A-375 [12] = experiment: Synergistic antiproliferative activity against human A-375 cells assessed as combination index at 50 uM incubated for 48 hrs in presence of 12.5 uM cisplatin by MTT assay; format: functional
# A549 [13] = experiment: Antiproliferative activity against human A549 cells incubated for 48 hrs by MTT assay; format: functional; conditions: read-out: LD50 (the source's name)
# [14] = Antiproliferative activity against HEK293 cells incubated for 72 hrs by MTT assay; format: toxicity, cell-based; conditions: human, read-out: LD50
# A549 [15] = experiment: Additive antiproliferative activity against human A549 cells assessed as combination index at 30 uM incubated for 48 hrs in presence of 6 uM cisplatin by MTT assay; format: functional
# A549 [16] = experiment: Antiproliferative activity against human A549 cells assessed as cisplatin LD50 at 30 uM incubated for 48 hrs in presence of cisplatin by MTT assay; format: functional; conditions: read-out: LD50 (the source's name)
# [17] = Upregulation of phosphorylated gamma-H2AX level in human OVCAR-3 cells assessed as fold increase in activity at 20 uM incubated for 24 hrs by in presence of cisplatin by immunofluorescence based microscopy relative to cisplatin; format: functional
# OVCAR-3 [18] = experiment: Antiproliferative activity against human OVCAR-3 cells assessed as cisplatin LD50 at 5 uM incubated for 48 hrs in presence of cisplatin by MTT assay; format: functional; conditions: read-out: LD50 (the source's name)
# A549 [19] = experiment: Additive antiproliferative activity against human A549 cells assessed as combination index at 30 uM incubated for 48 hrs in presence of 12.5 uM cisplatin by MTT assay; format: functional
# OVCAR-3 [20] = experiment: Additive antiproliferative activity against human OVCAR-3 cells assessed as combination index at 10 uM incubated for 48 hrs in presence of 6 uM cisplatin by MTT assay; format: functional
# A549 [21] = experiment: Antagonistic antiproliferative activity against human A549 cells assessed as combination index at 20 uM incubated for 48 hrs in presence of 12.5 uM cisplatin by MTT assay; format: functional
# A-375 [22] = experiment: Antiproliferative activity against human A-375 cells assessed as cisplatin LD50 at 30 uM incubated for 48 hrs in presence of cisplatin by MTT assay; format: functional; conditions: read-out: LD50 (the source's name)
# OVCAR-3 [23] = experiment: Antagonistic antiproliferative activity against human OVCAR-3 cells assessed as combination index at 10 uM incubated for 48 hrs in presence of 12.5 uM cisplatin by MTT assay; format: functional
# [24] = Metabolic stability in mouse liver microsome assessed as half life at 4.6 uM incubated upto 60 mins by LC/MS-MS analysis; format: ADME; conditions: liver microsomes
# A-375 [25] = experiment: Antiproliferative activity against human A-375 cells assessed as cisplatin LD50 at 50 uM incubated for 48 hrs in presence of cisplatin by MTT assay; format: functional; conditions: read-out: LD50 (the source's name)
# A-375 [26] = experiment: Synergistic antiproliferative activity against human A-375 cells assessed as combination index at 35 uM incubated for 48 hrs in presence of 6 uM cisplatin by MTT assay; format: functional
# A-375 [27] = experiment: Synergistic antiproliferative activity against human A-375 cells assessed as combination index at 35 uM incubated for 48 hrs in presence of 12.5 uM cisplatin by MTT assay; format: functional
# [28] = as §1; format: toxicity, cell-based; conditions: human, HEK293 cells, read-out: LD50
# A549 [29] = experiment: Synergistic antiproliferative activity against human A549 cells assessed as combination index at 50 uM incubated for 48 hrs in presence of 6 uM cisplatin by MTT assay; format: functional
# A549 [30] = experiment: Synergistic antiproliferative activity against human A549 cells assessed as combination index at 100 uM incubated for 48 hrs in presence of 6 uM cisplatin by MTT assay; format: functional
# A549 [31] = experiment: Synergistic antiproliferative activity against human A549 cells assessed as combination index at 50 uM incubated for 48 hrs in presence of 12.5 uM cisplatin by MTT assay; format: functional
# OVCAR-3 [32] = experiment: Synergistic antiproliferative activity against human OVCAR-3 cells assessed as combination index at 50 uM incubated for 48 hrs in presence of 12.5 uM cisplatin by MTT assay; format: functional
# OVCAR-3 [33] = experiment: Antiproliferative activity against human OVCAR-3 cells assessed as cisplatin LD50 at 75 uM incubated for 48 hrs in presence of cisplatin by MTT assay; format: functional; conditions: read-out: LD50 (the source's name)
# A549 [34] = experiment: Antiproliferative activity against human A549 cells assessed as cisplatin LD50 at 50 uM incubated for 48 hrs in presence of cisplatin by MTT assay; format: functional; conditions: read-out: LD50 (the source's name)
# OVCAR-3 [35] = experiment: Antiproliferative activity against human OVCAR-3 cells assessed as cisplatin LD50 at 50 uM incubated for 48 hrs in presence of cisplatin by MTT assay; format: functional; conditions: read-out: LD50 (the source's name)
# OVCAR-3 [36] = experiment: Upregulation of phosphorylated gamma-H2AX level in human OVCAR-3 cells incubated for 48 hrs by Western blot analysis; format: functional, cell-based; conditions: dose 30.0 µM
# A549 [37] = experiment: Synergistic antiproliferative activity against human A549 cells assessed as combination index at 100 uM incubated for 48 hrs in presence of 12.5 uM cisplatin by MTT assay; format: functional
# A-375 [38] = experiment: Upregulation of phosphorylated gamma-H2AX level in human A375 cells at 30 uM incubated for 48 hrs by in presence of cisplatin by Western blot analysis; format: functional, cell-based
# A-375 [39] = experiment: Synergistic antiproliferative activity against human A-375 cells assessed as combination index at 50 uM incubated for 48 hrs in presence of 6 uM cisplatin by MTT assay; format: functional
# A-375 [40] = experiment: Antiproliferative activity against human A-375 cells assessed as cisplatin LD50 at 35 uM incubated for 48 hrs in presence of cisplatin by MTT assay; format: functional; conditions: read-out: LD50 (the source's name)
# OVCAR-3 [41] = experiment: Synergistic antiproliferative activity against human OVCAR-3 cells assessed as combination index at 75 uM incubated for 48 hrs in presence of 12.5 uM cisplatin by MTT assay; format: functional
# A549 [42] = experiment: Antiproliferative activity against human A549 cells assessed as cisplatin LD50 at 100 uM incubated for 48 hrs in presence of cisplatin by MTT assay; format: functional; conditions: read-out: LD50 (the source's name)
# OVCAR-3 [43] = experiment: Synergistic antiproliferative activity against human OVCAR-3 cells assessed as combination index at 75 uM incubated for 48 hrs in presence of 6 uM cisplatin by MTT assay; format: functional
# OVCAR-3 [44] = experiment: Synergistic antiproliferative activity against human OVCAR-3 cells assessed as combination index at 50 uM incubated for 48 hrs in presence of 6 uM cisplatin by MTT assay; format: functional
# A-375 [45] = experiment: Upregulation of phosphorylated gamma-H2AX level in human A375 cells incubated for 48 hrs by Western blot analysis; format: functional, cell-based; conditions: dose 30.0 µM
compound,measurement,setting,value
COc1c(-c2ccc(O)c(O)c2)oc2cc(O)cc(O)c2c1=O [3-O-METHYLQUERCETIN],pIC50,DNA polymerase eta,4.97
same,CC50,A-375 [1],29 µM
same,CI,A549 [2],1.03
same,half-life at 2 µM,[3],> 2 h
same,CC50,A-375 [4],2 µM
same,"solubility kinetic at 24 h, 250 µM",[5],229 µM
same,Activity,HEK293,Non-Toxic
same,CC50,OVCAR-3 [6],5.8 µM
same,fold change (FC),[7],>2
same,CC50,A549 [8],11.9 µM
same,CC50,A-375 [9],0.5 µM
same,CI,A-375 [10],0.96
same,CC50,OVCAR-3 [11],5.2 µM
same,CI,A-375 [12],0.78
same,CC50,A549 [13],60 µM
same,CC50 at 72 h,[14],30.5 µM
same,CI,A549 [15],0.96
same,CC50,A549 [16],7.4 µM
same,fold change (FC),[17],>2
same,CC50,OVCAR-3 [18],4.8 µM
same,CI,A549 [19],0.94
same,CI,OVCAR-3 [20],1.15
same,CI,A549 [21],1.24
same,CC50,A-375 [22],0.4 µM
same,CI,OVCAR-3 [23],2.33
same,half-life at 4.6 µM,[24],> 1 h
O=c1c(OCCCO)c(-c2ccc(O)c(O)c2)oc2cc(O)cc(O)c12,pIC50,DNA polymerase eta,4.83
same,CC50,A-375 [1],> 100 µM
same,CC50,A-375 [25],1 µM
same,CI,A-375 [26],0.66
same,CI,A-375 [27],0.78
same,half-life at 2 µM,[3],1.5 h
same,"solubility kinetic at 24 h, 250 µM",[5],231 µM
same,CC50 at 48 h,[28],> 100 µM
same,CC50,OVCAR-3 [6],4.8 µM
same,fold change (FC),[7],>2
same,CI,A549 [29],0.78
same,CI,A549 [30],0.6
same,CI,A549 [31],0.8
same,CI,OVCAR-3 [32],0.78
same,CC50,OVCAR-3 [33],0.27 µM
same,CC50,A549 [34],19.7 µM
same,CC50,OVCAR-3 [35],2.8 µM
same,Activity,OVCAR-3 [36],Dose-Dependent Effect
same,CC50,OVCAR-3 [11],> 100 µM
same,CI,A-375 [12],0.23
same,CC50,A549 [13],> 100 µM
same,CI,A549 [37],0.58
same,fold change (FC),[17],>2
same,Activity,A-375 [38],Active
same,CI,A-375 [39],0.27
same,CC50,A-375 [40],2.6 µM
same,CI,OVCAR-3 [41],0.72
same,CC50,A549 [42],9.4 µM
same,CI,OVCAR-3 [43],0.5
same,CI,OVCAR-3 [44],0.52
same,half-life at 4.6 µM,[24],> 1 h
same,Activity,A-375 [45],Dose-Dependent Effect
